The record followed here is patent US20070203220A1, “Inhibitors Of PAI-1 For Treatment Of Muscular Conditions” (Wyeth, priority 2006, published 2007).

Series [1] concerns mdx mice. In words: mdx mouse model of muscular dystrophy, drug in rodent chow for 9 months, muscle and body weights. The format is in vivo. Particulars: female mdx mice. The text has this: The mdx mouse is a genetic model of Duchenne and Becker muscular dystrophies, providing a model system of muscle degeneration with aberrant regeneration. In this model, a nonsense mutation in the dystrophin gene results in the absence of dystrophin from the sarcolemma, and subsequent muscle fiber necrosis. Conversely, mice deficient in plasminogen activator inhibitor-1 have improved skeletal muscle regeneration. It was hypothesized that a small molecule PAI-1 inhibitor, such as, for example {1-Benzyl-5-[4-(trifluoromethoxy)phenyl]-1H-indol-3-yl}(oxo)acetic acid could potentially produce beneficial effects on the skeletal muscle of mdx mice.
Female mdx mice were purchased from a commercial vendor, and divided into 2 groups of equal body weight. {1-Benzyl-5-[4-(trifluoromethoxy)phenyl]-1H-indol-3-yl}(oxo)acetic acid was formulated into rodent chow at a concentration of 1 mg of drug per 1 gram of food (1 mg/g), and this mixture was formed into food pellets. A standard, pelleted rodent chow was used as the control diet. One group of mice received the drug-containing diet, while the other group received the control diet ad libitum. Each diet was coded, and the animal technicians remained blinded to the composition of the diets throughout the study.
Eight mice received either the control or drug-containing diet for 9 months. At the end of the study, the mice were killed, and muscle and body weights were measured. There was no change in body weight between groups (28.1±0.45 g for drug-treated vs. 28.3±0.69 g for Control). […] Because muscular dystrophy is a wasting disease, changes in muscle weight are routinely expressed per unit of body weight in preclinical studies. Therefore, the individual weight of each gastrocnemius muscle (mg) was expressed relative to total body weight (g). […] In drug-treated mice, muscle weight per unit of body weight was 5.02±0.13 mg/g, while in mice on the control diet, this value was 4.56 mg/g±0.20 (p=0.07).

What is called melting point is the temperature of the solid-liquid transition. In turn, `Cc1ccc(Cn2cc(C(=O)C(=O)O)c3cc(-c4ccccc4)ccc32)cc1` yielded a melting point of 195 to 196 °C.
Same read-out and setting: the result for `CC(=O)c1ccc(-c2ccc3c(c2)c(C(=O)C(=O)O)cn3Cc2ccccc2)cc1` reads 213 to 214 °C (dec.); that for `Cn1cc(C(=O)C(=O)O)c2ccc(-c3ccc(OC(F)(F)F)cc3)cc21`, 233 to 235 °C (dec.).
On to `O=C(O)C(=O)c1cn(Cc2ccccc2)c2ccc(-c3ccc(OC(F)(F)F)cc3)cc12` [{1-Benzyl-5-[4-(trifluoromethoxy)phenyl]-1H-indol-3-yl}(oxo)acetic acid], for which the “difference in group means of gastrocnemius muscle weight, drug-treated vs control” value in series [1] (drug in chow 1 mg/g) is reported as 8.6%. Moreover, in series [1] (drug in chow 1 mg/g ad libitum, p=0.07 vs control), the “muscle weight per unit of body weight (gastrocnemius)” value turned out to be 5.02 ± 0.13 mg/g. The molecule further showed a gastrocnemius muscle weight in series [1] (drug in chow 1 mg/g ad libitum, p=0.11 vs control) of 141.0 ± 4.1 mg.
